This note sets out measurements from patent US20240400579A1, “SPIROCYCLIC MODULATORS OF CHOLESTEROL BIOSYNTHESIS AND THEIR USE FOR PROMOTING REMYELINATION” (GENENTECH, INC., priority 2021, published 2024).

Like-named read-outs stand apart in the source and are kept apart here.

The term Ki denotes the equilibrium dissociation constant of an inhibitor or competing ligand from its target. As a reminder, the EC50 is the concentration at which the effect is half-maximal.

One experiment concerns the target human EBP (Homo sapiens (Human), UniProt Q15125). Description: Competition binding assay (SPA) to determine compound affinity to EBP. The settings on record: radioligand [3H]-Ifenprodil 10 nM; Ki=IC50/(1+[L]/Kd); HEK293 membrane; read-out: hEBP SPA Ki. As for the experimental part: Membrane preparation: To examine compound binding affinity to EBP, human EBP was overexpressed in human embryonic kidney 293 cells. Cell pellet was lysed in 10 times weight binding buffer (50 mM Tris, 5 mM MgCl2, 0.1 mM EDTA, 1× protease inhibitor cocktail, pH 7.5) on ice by using a dounce homogenizer. The solution was centrifuged at 25,000 g for 50 min at 4° C. The membrane pellet was re-suspended in binding buffer and run through a 25 5/8 gauge needle. After checking the concentration by Bradford assay, the whole cell membrane solution was adjusted to 20 mg/mL and stored at −80° C.
This binding solution was centrifuged at 400 g for 5 minutes to collect the bead/membrane mixture. After re-suspending the pellet in binding buffer at the same calculated volume with 0.01% BSA (Sigma A1933), the bead/membrane mixture was added in 384-well low-binding surface plate (PerkinElmer Cat #6057480) at 25 i/well. Radioligand at different concentrations with and without the non-radio-labeled same ligand 5 uM (for nonspecific and total signal, respectively) was added to bring final volume to 50 i/well with DMSO concentration at 0.1%. At equilibrium (3 hours after ligand addition), radiometric signal CPM was counted by using a Microbeta2 microplate counter (Perkinelmer).
Competition binding assay to determine compound affinity: The same conditions of the radioligand Kd study were used for compound single dose percentage inhibition and equilibrium dissociation constant Ki examinations, except 50 nL compound DMSO stock was pre-added in 384-well low-binding surface plate (PerkinElmer Cat #6057480) by Echo 550 (Labcyte) to reach the final concentration for single dose test at 1 uM, and dose response test from 0.06 nM to 5 uM (8 dose, 5 times dilution). A pre-incubated bead/membrane mixture was added in compound plate at 0.3 mg beads and […] membrane per well. […] At equilibrium (3 hours after ligand addition), radiometric signal was counted as described above. The percentage inhibition of compound at each testing concentration was calculated by normalizing each condition's CPM readout to full block (5 uM non-radiolabeled ligand) and non-block (DMSO) control conditions. Compound binding inhibition IC50 was determined by nonlinear regression fitting of percentage inhibition plot against compound concentration. Compound Ki was calculated from the equation Ki=IC50/(1+[L]/Kd), which [L] was radioligand concentration used in assay. All tests had N bigger or equal to 2.

For experiment [1], the target named is human emopamil binding protein and human 7-dehydrocholesterol reductase co-expressing cell membrane (Homo sapiens (Human), UniProt Q15125). Description: hEBP-DHCR7 radioligand filtration binding assay with [3H]-Compound 118A*. Conditions: radioligand [3H]-Compound 118A*; HEK293 membrane co-expressing hEBP and DHCR7. The essentials: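 HEK293 membranes transiently co-expressing hEBP and hDHCR7 (10 μg/well) were incubated with [3H]-Compound 118A* (added at 25 nM) and compounds (8 doses, final 0.06–5000 nM, n=2) for 3 h at 22 °C. Bound radioactivity was read after PEI-treated GF/B filtration. IC50 came from a Hill fit of % inhibition and was converted to Ki.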
Sequence of human emopamil binding protein and human 7-dehydrocholesterol reductase co-expressing cell membrane (Q15125 whole entry): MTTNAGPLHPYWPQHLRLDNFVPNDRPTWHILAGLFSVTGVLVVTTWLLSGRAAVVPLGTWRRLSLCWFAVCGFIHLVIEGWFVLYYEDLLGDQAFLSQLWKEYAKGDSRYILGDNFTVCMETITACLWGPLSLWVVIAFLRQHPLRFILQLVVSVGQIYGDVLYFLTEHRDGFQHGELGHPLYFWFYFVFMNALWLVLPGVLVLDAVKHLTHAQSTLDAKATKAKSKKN

Experiment [2] concerns zymostenol accumulation in EpiSC-derived OPCs (EBP). As to the kind of experiment: GC/MS-based sterol profiling, zymostenol accumulation. Conditions: 8 doses from 0.15 nM to 333 nM, read-out: mZymo GCMS EC50. The experiment is classed as cell-based, mouse. A digest of the protocol: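 EpiSC-derived mouse OPCs plated at 100,000 cells/well in N2B27 without growth factors and treated 24 h. Sterols extracted, silylated with BSTFA and measured by GC/MS (EI, full scan), quantified against cholesterol-d7. Zymostenol normalized to levels after 24 h with 100 nM positive control reference.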

For another experiment, the system named is EpiSC-derived OPCs. Description: In vitro phenotypic screening of OPCs, MBP high-content imaging. The experiment is classed as cell-based, mouse. Conditions: percentage of MBP+ oligodendrocytes, 3 days, 0.5 nM to 1000 nM, read-out: mOPC EC50. The essentials:
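Mouse EpiSC-derived OPCs seeded without growth factors and exposed 3 days at 37° C. to 8-point doses, 1000 nM to 0.5 nM final. Fixed cells stained for MBP and DAPI; high-content imaging gave percentage MBP+ oligodendrocytes, with EC50 from Hill-equation fit.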

Sequence of human EBP (Q15125 whole entry): as above

Turning to `C[C@H](Cc1cnn(CC(F)(F)F)c1)CN1CCC2(C1)CS(=O)(=O)C2` (single isomer, unassigned) [Compound 154B], the inhibition constant Ki on human EBP worked out at 53 nM; in experiment [1], 143 nM. For the same molecule, the EC50 in experiment [2] (Mus musculus, 24 h) was 250 nM.
Consider `CC(C)(CN1CCC2(C1)CS(=O)(=O)C2)Oc1ccccc1F` [Example 133, 6-(2-(2-Fluorophenoxy)-2-methylpropyl)-2-thia-6-azaspiro[3.4]octane 2,2-dioxide], for which the Ki at human EBP is 89 nM; in experiment [1], 86.6 nM. For the same molecule, the EC50 in experiment [2] (Mus musculus, 24 h) was 72 nM.
With `C[C@@H](Cc1cnn(CC(F)(F)F)c1)CN1CCC2(C1)CS(=O)(=O)C2` (single isomer, unassigned) [Compound 154A], the Ki at human EBP amounted to 59 nM; in experiment [1], 176 nM. Further, the 50% effective concentration (EC50) in experiment [2] (Mus musculus, 24 h) is 200 nM.
The like results for `CC(Cc1cc(C(F)(F)F)nn1C(C)C)CN1CCC2(C1)CS(=O)(=O)C2` (racemic) [Example 155, (S)-6-(3-(1-Isopropyl-3-(trifluoromethyl)-1H-pyrazol-5-yl)-2-methylpropyl)-2-thia-6-azaspiro[3.4]octane 2,2-dioxide and (R)-6-(3-(1-isopropyl-3-(trifluoromethyl)-1H-pyrazol-5-yl)-2-methylpropyl)-2-thia-6-azaspiro[3.4]octane 2,2-dioxide] were, in that order, 14 nM, 187 nM and 3 nM.
Regarding `C[C@H](Cc1cnc(C(F)(F)F)nc1)CN1CCC2(C1)CS(=O)(=O)C2` (single isomer, unassigned) [Compound 145B], the Ki stood at 100 nM on human EBP and 106 nM in experiment [1]. For the same molecule, the EC50 in experiment [2] (Mus musculus, 24 h) came out at 55 nM.
Regarding `C[C@H](Cc1ccc(C(F)F)cc1)CN1CCC2(C1)CS(=O)(=O)C2` (single isomer, unassigned) [Compound 128B], the Ki on human EBP came to 45 nM; in experiment [1], 25.7 nM. Besides, the EC50 in experiment [2] (Mus musculus, 24 h) was 4.8 nM.
For `O=S1(=O)CC2(CCN(CC(F)Cc3ccc(C(F)(F)F)cc3)C2)C1` (racemic) [Example 142, (S)-6-(2-Fluoro-3-(4-(trifluoromethyl)phenyl)propyl)-2-thia-6-azaspiro[3.4]octane 2,2-dioxide and (R)-6-(2-fluoro-3-(4-(trifluoromethyl)phenyl)propyl)-2-thia-6-azaspiro[3.4]octane 2,2-dioxide], in that order: 35 nM, 16.1 nM and 14 nM.
On to `C[C@@H](Cc1ccc([C@H]2CC[C@](C)(O)CC2)c(Cl)c1)CN1CCC2(C1)CS(=O)(=O)C2` (mixture of isomers) [Compound 123B, 6-((S)-3-(3-Chloro-4-((1r,4S)-4-hydroxy-4-methylcyclohexyl)phenyl)-2-methylpropyl)-2-thia-6-azaspiro[3.4]octane 2,2-dioxide, and 6-((R)-3-(3-chloro-4-((1r,4R)-4-hydroxy-4-methylcyclohexyl)phenyl)-2-methylpropyl)-2-thia-6-azaspiro[3.4]octane 2,2-dioxide], for which affinity in experiment [1] was put at a Ki of 11 nM. Moreover, the EC50 stood at 2.4 nM in experiment [2] (24 hours) and 35 nM in the experiment on EpiSC-derived OPCs.
In experiment [1], `CCC(C)(C)c1ccc(CCC(C)N2CCC3(C2)CS(=O)(=O)C3)cc1` (racemic) [Compound 105, 6-(4-(4-(tert-Pentyl)phenyl)butan-2-yl)-2-thia-6-azaspiro[3.4]octane 2,2-dioxide] showed a Ki of 12.9 nM. Moreover, the EC50 in experiment [2] (Mus musculus, 24 h) worked out at 66 nM; with EpiSC-derived OPCs (Mus musculus, 72 h), 260 nM.
For `CC(Cc1ccc(C2CC2(C)C)cc1)CN1CCC2(C1)CS(=O)(=O)C2` (racemic) [Compound 102], affinity in experiment [1] was put at a Ki of 8.31 nM. For the same molecule, the EC50 in experiment [2] (Mus musculus, 24 h) amounted to 2.5 nM; in the experiment on EpiSC-derived OPCs (Mus musculus, 72 h) it was 20 nM.
For `CC(C)n1nc(C(F)(F)F)cc1C[C@H](C)CN1CCC2(C1)CS(=O)(=O)C2` (single isomer, unassigned) [235B*], in that order: 17.1 nM, 2.6 nM and 3.89 nM.
For `C[C@H](CN1CCC2(CC1)CS(=O)(=O)C2)Oc1ccc(C(F)(F)F)nc1` (single isomer, unassigned) [Example 207B*], in that order: 65.3 nM, 9.8 nM and 63 nM.
Take `C[C@@H](Cc1ccc([C@H]2CC[C@](O)(C(F)(F)F)CC2)c(Cl)c1)CN1CCC2(C1)CS(=O)(=O)C2` (stereo in doubt) [116A*, 6-((S)-3-(3-Chloro-4-((1s,4R)-4-hydroxy-4-(trifluoromethyl)cyclohexyl)phenyl)-2-methylpropyl)-2-thia-6-azaspiro[3.4]octane 2,2-dioxide, 6-((R)-3-(3-chloro-4-((1s,4S)-4-hydroxy-4-(trifluoromethyl)cyclohexyl)phenyl)-2-methylpropyl)-2-thia-6-azaspiro[3.4]octane 2,2-dioxide]: in experiment [1], the affinity, expressed as Ki, was 10.5 nM. For the same molecule, the EC50 was 0.49 nM in experiment [2] (24 hours) and 1.6 nM in the experiment with EpiSC-derived OPCs.
Turning to `C[C@H](Cc1ccc(C(F)(F)F)cn1)CN1CCC2(C1)CS(=O)(=O)C2` (single isomer, unassigned) [121B*], in experiment [1], the Ki was 140 nM. For the same molecule, the EC50 in experiment [2] (Mus musculus, 24 h) is 150 nM; in the experiment on EpiSC-derived OPCs (Mus musculus, 72 h) it was 260 nM.
Molecule `CC(C)(CN1CC2(CCS(=O)(=O)CC2)C1)Oc1ccc(C(F)(F)F)cc1` [Example 209, 2-(2-Methyl-2-(4-(trifluoromethyl)phenoxy)propyl)-7-thia-2-azaspiro[3.5]nonane 7,7-dioxide] returned a Ki in experiment [1] of 13.9 nM. Moreover, the EC50 in experiment [2] (Mus musculus, 24 h) was found to be 9.9 nM; in the experiment with EpiSC-derived OPCs (Mus musculus, 72 h), 45 nM.
For `O=S1(=O)CC2(CCN(CCOc3ccc(C(F)(F)F)c(F)c3)CC2)C1` [Compound 228, 7-(2-(3-Fluoro-4-(trifluoromethyl)phenoxy)ethyl)-2-thia-7-azaspiro[3.5]nonane 2,2-dioxide], affinity in experiment [1] was put at a Ki of 7.95 nM. Also, the EC50 in experiment [2] (Mus musculus, 24 h) stood at 0.94 nM; in the experiment with EpiSC-derived OPCs (Mus musculus, 72 h) it was 2.8 nM.
Consider `O=S1(=O)CC2(CCN(CC[C@@H](F)c3ccc(C(F)(F)F)cc3)C2)C1` (single isomer, unassigned) [Compound 122A], for which the Ki in experiment [1] was determined as 15.6 nM. The concentration for a half-maximal effect (EC50) is 1.5 nM in experiment [2] (Mus musculus, 24 h) and 10 nM with EpiSC-derived OPCs (Mus musculus, 72 h).
`O=S1(=O)CC2(CCN(CC[C@@H](F)c3ccc(C(F)(F)F)nc3)CC2)C1` (single isomer, unassigned) [237B*] gave a Ki in experiment [1] of 117 nM. Besides, the half-maximal effective concentration (EC50) is 17 nM in experiment [2] (Mus musculus, 24 h) and 69.1 nM in the experiment on EpiSC-derived OPCs (Mus musculus, 72 h).
In experiment [1], `O=S1(=O)CCC2(CC1)CN(CCCc1ccc(C(F)(F)F)nc1)C2` [Compound 223, 2-(3-(6-(Trifluoromethyl)pyridin-3-yl)propyl)-7-thia-2-azaspiro[3.5]nonane 7,7-dioxide] returned a Ki of 555 nM. Besides, the EC50 in experiment [2] (Mus musculus, 24 h) was 120 nM; with EpiSC-derived OPCs (Mus musculus, 72 h), 355 nM.
The like results for `O=S1(=O)CCC2(CC1)CN(CCOc1ccc(F)c(F)c1)C2` [Compound 214, 2-(2-(3,4-Difluorophenoxy)ethyl)-7-thia-2-azaspiro[3.5]nonane 7,7-dioxide] were, in that order, 40.8 nM, 15 nM and 50.4 nM.
Molecule `C[C@H](Cc1ccc(OC(F)(F)F)cc1)CN1CCC2(C1)CS(=O)(=O)C2` (single isomer, unassigned) [119B*] gave a Ki in experiment [1] of 10.5 nM. Also, the EC50 in experiment [2] (Mus musculus, 24 h) was found to be 4 nM; with EpiSC-derived OPCs (Mus musculus, 72 h), 2.2 nM.
